system: MOLM13 cells; test: Growth inhibition of CDK9-positive cell line MOLM13 in vitro (CCK8/MTT assay); assay type: cell-based, human; settings: Homo sapiens, MOLM-13, read-out: IC50 of the compound for inhibiting cell growth, MOLM13 cells
Experimental: 1. MOLM13 cell line and cell culture MOLM13 is a CDK9-positive human acute myeloid leukemia cell line from DMSZ. Suspension culture was carried out in RPMI1640 (Gibco) medium with 10% fetal bovine serum (Gibco), 1% penicillin-streptomycin and 2 mM glutamine.
Suspended MOLM-13 cells in logarithmic growth phase were collected by centrifugation (1700 rpm, 3 minutes), the supernatant was discarded, and the cells were counted. A solution with a cell concentration of 2×10^5 cells per milliliter was formulated and inoculated in a 96-well plate (Corning) with 100 microliters per well. The plate was incubated at 37° C., 5% CO2 overnight. On the next day, the test compound was added to the cultured cells in two parallel wells. […]
The present compound and the control compounds were respectively dissolved in DMSO (Sigma).
When the solvent control well became dark yellow, the OD450 nm absorption value was measured, and the cell growth rate was calculated according to the following formula. Cell growth rate %=100*(T−T0)/(C−T0), wherein T=the optical density value of the drug-treated well—the optical density value of the blank control well, T0=the optical density value of the well before drug treatment—the optical density value of the blank control well, C=the optical density value of the solvent control well—the optical density value of the blank control well. […] The assay was repeated three times, and the data was subjected to a biological statistical analysis.

Row | Compound | IC50
1 | CN1CCN(CCOc2ccc(Nc3nccc(-n4cc(C(N)=O)c5ccccc54)n3)cc2)CC1 [Compound 18, 1-(2-{4-[2-(4-methyl-piperazin-1-yl)-ethoxy]-phenylamino}-pyrimidin-4-yl)-1H-indole-3-carboxamide] | 10 to 100 nM
2 | NC(=O)c1cn(-c2ccnc(Nc3ccc(N4CCNCC4)cc3)n2)c2ccccc12 [Compound 27, 1-[2-(4-piperazin-1-yl-phenylamino)-pyrimidin-4-yl]-1H-indole-3-carboxamide] | 1 to 10 nM

same assay, conditions: Homo sapiens, MOLM-13; MOLM13 cells, cultured 3 to 6 days, CCK8; read-out: IC50 of the compound for inhibiting cell growth, MOLM13 cells

Row | Compound | IC50
3 | COc1cc(F)ccc1-c1cc(Nc2cc(CS(C)(=N)=O)ccn2)ncc1F (centres unmarked) [BAY1251125, reference compound] | 10 to 100 nM
4 | COc1cc(F)c([N+](=O)[O-])cc1Nc1nccc(-n2cc(C(N)=O)c3ccccc32)n1 [Compound 7, 1-[2-(4-fluoro-2-methoxy-5-nitro-phenylamino)-pyrimidin-4-yl]-1H-indole-3-carboxamide] | 10 to 100 nM
5 | NC(=O)c1cn(-c2ccnc(Nc3ccc(NCCN4CCOCC4)cc3)n2)c2ccccc12 [Compound 9, 1-{2-[4-(2-morpholin-4-yl-ethylamino)-phenylamino]-pyrimidin-4-yl}-1H-indole-3-carboxamide] | 10 to 100 nM
6 | NC(=O)c1cn(-c2ccnc(Nc3ccc(NCCN4CCCCC4)cc3)n2)c2ccccc12 [Compound 10, 1-{2-[4-(2-piperidin-1-yl-ethylamino)-phenylamino]-pyrimidin-4-yl}-1H-indole-3-carboxamide] | 10 to 100 nM
7 | CN1CCN(CCNc2ccc(Nc3nccc(-n4cc(C(N)=O)c5ccccc54)n3)cc2)CC1 [Compound 11, 1-(2-{4-[2-(4-methyl-piperazin-1-yl)-ethylamino]-phenylamino}-pyrimidin-4-yl)-1H-indole-3-carboxamide] | 10 to 100 nM
8 | NC(=O)c1cn(-c2ccnc(Nc3ccc(NC4CCNCC4)cc3)n2)c2ccccc12 [Compound 12, 1-{2-[4-(piperidin-4-amino)-phenylamino]-pyrimidin-4-yl}-1H-indole-3-carboxamide] | 10 to 100 nM
9 | NC(=O)c1cn(-c2ccnc(Nc3ccc(NCCN4CCCC4)cc3)n2)c2ccccc12 [Compound 13, 1-{2-[4-(2-pyrrolidin-1-yl-ethylamino)-phenylamino]-pyrimidin-4-yl}-1H-indole-3-carboxamide] | 10 to 100 nM
10 | NC(=O)c1cn(-c2ccnc(Nc3ccc(CN4CCOCC4)cc3)n2)c2ccccc12 [Compound 14, 1-[2-(4-morpholin-4-methyl-phenylamino)-pyrimidin-4-yl]-1H-indole-3-carboxamide] | 10 to 100 nM
11 | CC(=O)N1CCN(Cc2ccc(Nc3nccc(-n4cc(C(N)=O)c5ccccc54)n3)cc2)CC1 [Compound 15, 1-{2-[4-(4-acetyl-piperazin-1-methyl)-phenylamino]-pyrimidin-4-yl}-1H-indole-3-carboxamide] | 10 to 100 nM
12 | CN(C)CCOc1ccc(Nc2nccc(-n3cc(C(N)=O)c4ccccc43)n2)cc1 [Compound 19, 1-{2-[4-(2-dimethylamino-ethoxy)-phenylamino]-pyrimidin-4-yl}-1H-indole-3-carboxamide] | 10 to 100 nM
13 | NC(=O)c1cn(-c2ccnc(Nc3ccc(OCCN4CCCC4)cc3)n2)c2ccccc12 [Compound 20, 1-{2-[4-(2-pyrrolidin-1-yl-ethoxy)-phenylamino]-pyrimidin-4-yl}-1H-indole-3-carboxamide] | 10 to 100 nM
14 | NC(=O)c1cn(-c2ccnc(Nc3ccc(OCCN4CCOCC4)cc3)n2)c2ccccc12 [Compound 21, 1-{2-[4-(2-morpholin-4-yl-ethoxy)-phenylamino]-pyrimidin-4-yl}-1H-indole-3-carboxamide] | 10 to 100 nM
15 | NC(=O)c1cn(-c2ccnc(Nc3ccc(OCCN4CCNCC4)cc3)n2)c2ccccc12 [Compound 22, 1-(2-{4-[2-(4-piperazin-1-yl)-ethoxy]-phenylamino]-pyrimidin-4-yl}-1H-indole-3-carboxamide] | 10 to 100 nM
16 | NC(=O)c1cn(-c2ccnc(Nc3ccc(N4CCC(N5CCCCC5)CC4)cc3)n2)c2ccccc12 [Compound 24, 1-[2-(4-[1,4′]bipiperidin-1′-yl-phenylamino)-pyrimidin-4-yl]-1H-indole-3-carboxamide] | 10 to 100 nM
17 | NC(=O)c1cn(-c2ccnc(Nc3ccc(N4CCN(CCO)CC4)cc3)n2)c2ccccc12 [Compound 25, 1-(2-{4-[4-(2-hydroxy-ethyl)-piperazin-1-yl]-phenylamino}-pyrimidin-4-yl)-1H-indole-3-carboxamide] | 10 to 100 nM
18 | COCCN1CCN(c2ccc(Nc3nccc(-n4cc(C(N)=O)c5ccccc54)n3)cc2)CC1 [Compound 26, 1-(2-{4-[4-(2-methoxy-ethyl)-piperazin-1-yl]-phenylamino}-pyrimidin-4-yl)-1H-indole-3-carboxamide] | 10 to 100 nM
19 | NC(=O)c1cn(-c2ccnc(Nc3ccc(N4CCNCC4)cc3)n2)c2cccc(F)c12 [Compound 29, 4-fluoro-1-[2-(4-piperazin-1-yl-phenylamino)-pyrimidin-4-yl]-1H-indole-3-carboxamide] | 10 to 100 nM

The next lines start with the values.

Row | IC50 | Compound
20 | > 1000 nM | NC(=O)c1cn(-c2ccnc(Nc3ccc(F)c(Br)c3)n2)c2ccccc12 [Compound 1, 1-[2-(3-bromo-4-fluoro-phenylamino)-pyrimidin-4-yl]-1H-indole-3-carboxamide]
21 | > 1000 nM | NC(=O)c1cn(-c2ccnc(Nc3ccc(C(F)(F)F)c(Cl)c3)n2)c2ccccc12 [Compound 2, 1-[2-(3-chloro-4-trifluoromethyl-phenylamino)-pyrimidin-4-yl]-1H-indole-3-carboxamide]
22 | > 1000 nM | NC(=O)c1cn(-c2ccnc(Nc3cccc(F)c3Cl)n2)c2ccccc12 [Compound 3, 1-[2-(2-chloro-3-fluoro-phenylamino)-pyrimidin-4-yl]-1H-indole-3-carboxamide]
23 | > 1000 nM | NC(=O)c1cn(-c2ccnc(Nc3cc(F)cc(C(F)(F)F)c3)n2)c2ccccc12 [Compound 4, 1-[2-(3-fluoro-5-trifluoromethyl-phenylamino)-pyrimidin-4-yl]-1H-indole-3-carboxamide]
24 | > 1000 nM | COc1ccc(Nc2nccc(-n3cc(C(N)=O)c4ccccc43)n2)cc1OC [Compound 5, 1-[2-(3,4-methoxy-phenylamino)-pyrimidin-4-yl]-1H-indole-3-carboxamide]
25 | > 1000 nM | NC(=O)c1cn(-c2ccnc(Nc3ccc(F)c([N+](=O)[O-])c3)n2)c2ccccc12 [Compound 6, 1-[2-(4-fluoro-3-nitro-phenylamino)-pyrimidin-4-yl]-1H-indole-3-carboxamide]
26 | 10 to 100 nM | CN(C)CCNc1ccc(Nc2nccc(-n3cc(C(N)=O)c4ccccc43)n2)cc1 [Compound 8, 1-{2-[4-(2-dimethylamino-ethylamino)-phenylamino]-pyrimidin-4-yl}-1H-indole-3-carboxamide]
27 | 100 to 1000 nM | COc1ccc(Nc2nccc(-n3cc(C(N)=O)c4ccccc43)n2)cc1 [Compound 17, 1-[2-(4-methoxy-phenylamino)-pyrimidin-4-yl]-1H-indole-3-carboxamide]
28 | 10 to 100 nM | CN(C)CCSc1ccc(Nc2nccc(-n3cc(C(N)=O)c4ccccc43)n2)cc1 [Compound 23, 1-{2-[4-(2-dimethylamino-ethylthio)-phenylamino]-pyrimidin-4-yl}-1H-indole-3-carboxamide]
29 | 1 to 10 nM | Cc1cc(Nc2nccc(-n3cc(C(N)=O)c4ccccc43)n2)ccc1N1CCNCC1 [Compound 28, 1-[2-(3-methyl-4-piperazin-1-yl-phenylamino)-pyrimidin-4-yl]-1H-indole-3-carboxamide]
